# Laboratory results as given in patent EP0432983A2 (priority 1989, dated 1991).
# How the values were obtained:
# [1] = test system: BHK (Hamster kidney fibroblast); assay: Cytotoxicity assay, BHK; format: cell-based
# Procedure: (§1) With compounds AH-3, AH-4 and AH-5, four general anti-tumour assays and two cytotoxicity assays were performed. Current screening protocols were employed using test substance diluted as above and at varying concentrations. Tests were performed against the tumour cells P-388 (mouse DBA/2 lymphoid neoplasm), A-549 (human lung carcinoma), HT-29 (human colon carcinoma) and MCF-7 (human breast carcinoma) and for the cytotoxicity assays against CV-1 (monkey kidney fibroblast) and BHK (Hamster kidney fibroblast).
# (§2) Scoring is performed as follows: (-) no activity - the number of cells is equal to the control of growth, 0-40% cell inhibition (+) low activity - numbers of cells are reduced by approx 50-60% (++) good activity - numbers of cells are reduced by approx 70-90% (+++) very good activity - there is 100% cell inhibition [(+) is the approximate IC₅₀]
# [2] = test system: VSV (Vesicular Stomatitis Virus); assay: microbe, parasite or virus in culture; format: cell-based; conditions: BHK, read-out: IC50 µg/ml approx
# [3] = test system: MCF-7 (human breast carcinoma); assay: General anti-tumour assay, MCF-7; format: cell-based
# Procedure: as §1, §2
# [4] = test system: A-549 (human lung carcinoma); assay: General anti-tumour assay, A-549; format: cell-based
# Procedure: as §1, §2
# [5] = test system: P-388 (mouse DBA/2 lymphoid neoplasm); assay: General anti-tumour assay, P-388; format: cell-based
# Procedure: as §1, §2
# [6] = test system: CV-1 (monkey kidney fibroblast); assay: Cytotoxicity assay, CV-1; format: cell-based
# Procedure: as §1, §2
# [7] = test system: HSV-1 (herpes simplex virus, type 1); assay: General anti-viral assay, HSV-1 in CV-1 cells (plaque reduction); format: cell-based; conditions: Human alphaherpesvirus 1, CV-1, read-out: IC50 µg/ml approx
# [8] = test system: HT-29 (human colon carcinoma); assay: General anti-tumour assay, HT-29; format: cell-based
# Procedure: as §1, §2
compound,measurement,setting,value
"CC(C)=CC(=O)CC(C)C1CCC(C)c2c1cc(C)c1c2OCO1 (stereo not drawn) [AH-3, Helioporin C]",IC50,"[1]; Mesocricetus auratus, read-out: IC50 µg/ml approx",~1 µg/mL
same,activity (cell inhibition),[1]; TEST CONC (µg) 0.2,"- ((-) no activity - the number of cells is equal to the control of growth, 0-40% cell inhibition)"
same,activity (cell inhibition),[1]; TEST CONC (µg) 0.5,"- ((-) no activity - the number of cells is equal to the control of growth, 0-40% cell inhibition)"
same,activity (cell inhibition),[1]; TEST CONC (µg) 1,+ ((+) low activity - numbers of cells are reduced by approx 50-60%)
same,activity (cell inhibition),[1]; TEST CONC (µg) 2,+++ ((+++) very good activity - there is 100% cell inhibition)
same,activity (cell inhibition),[1]; TEST CONC (µg) 5,+++ ((+++) very good activity - there is 100% cell inhibition)
same,activity (cell inhibition),[1]; TEST CONC (µg) 10,+++ ((+++) very good activity - there is 100% cell inhibition)
same,activity (cell inhibition),[1]; TEST CONC (µg) 20,+++ ((+++) very good activity - there is 100% cell inhibition)
same,IC50,[2],> 40 µg/mL
same,IC50,"[3]; Homo sapiens, MCF7, MCF-7, read-out: IC50 µg/ml approx",~5 µg/mL
same,activity (cell inhibition),"[3]; MCF-7, TEST CONC (µg) 0.2","- ((-) no activity - the number of cells is equal to the control of growth, 0-40% cell inhibition)"
same,activity (cell inhibition),"[3]; MCF-7, TEST CONC (µg) 0.5","- ((-) no activity - the number of cells is equal to the control of growth, 0-40% cell inhibition)"
same,activity (cell inhibition),"[3]; MCF-7, TEST CONC (µg) 1","- ((-) no activity - the number of cells is equal to the control of growth, 0-40% cell inhibition)"
same,activity (cell inhibition),"[3]; MCF-7, TEST CONC (µg) 2","- ((-) no activity - the number of cells is equal to the control of growth, 0-40% cell inhibition)"
same,activity (cell inhibition),"[3]; MCF-7, TEST CONC (µg) 5",+ ((+) low activity - numbers of cells are reduced by approx 50-60%)
same,activity (cell inhibition),"[3]; MCF-7, TEST CONC (µg) 10",++ ((++) good activity - numbers of cells are reduced by approx 70-90%)
same,activity (cell inhibition),"[3]; MCF-7, TEST CONC (µg) 20",+++ ((+++) very good activity - there is 100% cell inhibition)
same,activity (cell inhibition),"[4]; A-549, TEST CONC (µg) 0.2","- ((-) no activity - the number of cells is equal to the control of growth, 0-40% cell inhibition)"
same,activity (cell inhibition),"[4]; A-549, TEST CONC (µg) 0.5","- ((-) no activity - the number of cells is equal to the control of growth, 0-40% cell inhibition)"
same,activity (cell inhibition),"[4]; A-549, TEST CONC (µg) 1","- ((-) no activity - the number of cells is equal to the control of growth, 0-40% cell inhibition)"
same,activity (cell inhibition),"[4]; A-549, TEST CONC (µg) 2","- ((-) no activity - the number of cells is equal to the control of growth, 0-40% cell inhibition)"
same,activity (cell inhibition),"[4]; A-549, TEST CONC (µg) 5",+ ((+) low activity - numbers of cells are reduced by approx 50-60%)
same,activity (cell inhibition),"[4]; A-549, TEST CONC (µg) 10",+++ ((+++) very good activity - there is 100% cell inhibition)
same,activity (cell inhibition),"[4]; A-549, TEST CONC (µg) 20",+++ ((+++) very good activity - there is 100% cell inhibition)
same,IC50,"[4]; Homo sapiens, A549, A-549, read-out: IC50 µg/ml approx",~5 µg/mL
same,IC50,"[5]; Mus musculus, P388, P-388, read-out: IC50 µg/ml approx",~1 µg/mL
same,activity (cell inhibition),"[5]; P-388, TEST CONC (µg) 0.2","- ((-) no activity - the number of cells is equal to the control of growth, 0-40% cell inhibition)"
same,activity (cell inhibition),"[5]; P-388, TEST CONC (µg) 0.5","- ((-) no activity - the number of cells is equal to the control of growth, 0-40% cell inhibition)"
same,activity (cell inhibition),"[5]; P-388, TEST CONC (µg) 1",+ ((+) low activity - numbers of cells are reduced by approx 50-60%)
same,activity (cell inhibition),"[5]; P-388, TEST CONC (µg) 2",++ ((++) good activity - numbers of cells are reduced by approx 70-90%)
same,activity (cell inhibition),"[5]; P-388, TEST CONC (µg) 5",+++ ((+++) very good activity - there is 100% cell inhibition)
same,activity (cell inhibition),"[5]; P-388, TEST CONC (µg) 10",+++ ((+++) very good activity - there is 100% cell inhibition)
same,activity (cell inhibition),"[5]; P-388, TEST CONC (µg) 20",+++ ((+++) very good activity - there is 100% cell inhibition)
same,cytotoxicity (inhibition zone on the cell sheet),BHK cells,0-
same,activity (cell inhibition),"[6]; CV-1, TEST CONC (µg) 0.2","- ((-) no activity - the number of cells is equal to the control of growth, 0-40% cell inhibition)"
same,activity (cell inhibition),"[6]; CV-1, TEST CONC (µg) 0.5","- ((-) no activity - the number of cells is equal to the control of growth, 0-40% cell inhibition)"
same,activity (cell inhibition),"[6]; CV-1, TEST CONC (µg) 1","- ((-) no activity - the number of cells is equal to the control of growth, 0-40% cell inhibition)"
same,activity (cell inhibition),"[6]; CV-1, TEST CONC (µg) 2","- ((-) no activity - the number of cells is equal to the control of growth, 0-40% cell inhibition)"
same,activity (cell inhibition),"[6]; CV-1, TEST CONC (µg) 5","- ((-) no activity - the number of cells is equal to the control of growth, 0-40% cell inhibition)"
same,activity (cell inhibition),"[6]; CV-1, TEST CONC (µg) 10",++ ((++) good activity - numbers of cells are reduced by approx 70-90%)
same,activity (cell inhibition),"[6]; CV-1, TEST CONC (µg) 20",+++ ((+++) very good activity - there is 100% cell inhibition)
same,IC50,"[6]; Primates, CV-1, read-out: IC50 µg/ml approx",5 to 10 µg/mL
same,IC50,[7],~40 µg/mL
same,activity (cell inhibition),"[8]; HT-29, TEST CONC (µg) 0.2","- ((-) no activity - the number of cells is equal to the control of growth, 0-40% cell inhibition)"
same,activity (cell inhibition),"[8]; HT-29, TEST CONC (µg) 0.5","- ((-) no activity - the number of cells is equal to the control of growth, 0-40% cell inhibition)"
same,activity (cell inhibition),"[8]; HT-29, TEST CONC (µg) 1","- ((-) no activity - the number of cells is equal to the control of growth, 0-40% cell inhibition)"
same,activity (cell inhibition),"[8]; HT-29, TEST CONC (µg) 2",+ ((+) low activity - numbers of cells are reduced by approx 50-60%)
same,activity (cell inhibition),"[8]; HT-29, TEST CONC (µg) 5",++ ((++) good activity - numbers of cells are reduced by approx 70-90%)
same,activity (cell inhibition),"[8]; HT-29, TEST CONC (µg) 10",+++ ((+++) very good activity - there is 100% cell inhibition)
same,activity (cell inhibition),"[8]; HT-29, TEST CONC (µg) 20",+++ ((+++) very good activity - there is 100% cell inhibition)
same,IC50,"[8]; Homo sapiens, HT-29, read-out: IC50 µg/ml approx",~2 µg/mL
